Data as given in patent US20260130933A1, “PHARMACEUTICAL COMPOSITION FOR PREVENTION OR TREATMENT OF NEPHROPATHY AND/OR DIABETES MELLITUS, COMPRISING ENAVOGLIFLOZIN” (DAEWOONG PHARMACEUTICAL CO., LTD., priority 2022, published 2026).
Values joined by “and” are separate entries in the source; they are usually repeats but may differ in a detail not shown here. Equal values may be shown once.

Experiment: Example 2: phase 3 trial, enavogliflozin 0.3 mg vs dapagliflozin 10 mg once a day for 24 weeks added to metformin in patients with type 2 diabetes (same efficacy, exploratory and safety endpoints)
Format: in vivo, human
Description: Subjects who met the inclusion/exclusion criteria were administered a placebo of the clinical trial drug under single-blind (subject blinding) conditions during a 2-week run-in period while continuing to receive metformin. […] The randomized subjects were administered two tablets of the clinical trial drug for each administration group once a day, and then visited the institution at weeks 6, 12, 18, and 24 during the 24-week administration period to conduct efficacy and safety evaluations.
• 1. Change in HbA1c at week 24 after administration of clinical trial drug compared to Visit 2 (randomization)
• 1. Change in HbA1c at each time point of weeks 6, 12, and 18 after administration of clinical trial drug compared to Visit 2 (randomization) • 2. Change in FPG at each time point of weeks 6, 12, 18, and 24 after administration of clinical trial drug compared to Visit 2 (randomization) • 3. Proportion of subjects achieving HbA1c<7% at each time point of weeks 6, 12, 18, and 24 after administration of clinical trial drug • 4. Proportion of subjects achieving HbA1c<6.5% at each time point of weeks 6, 12, 18, and 24 after administration of clinical trial drug • 5. Proportion of subjects achieving therapeutic response (HbA1c change (HbA1c at Visit 2-HbA1c at each evaluation time point)>0.5% or HbA1c<7% at each evaluation time point compared to Visit 2 (randomization)) at each time point of weeks 6, 12, 18 and 24 after administration of clinical trial drug
• 1. Change in fasting c-peptide at each time point of weeks 6, 12, 18, and 24 after administration of clinical trial drug compared to Visit 2 (randomization) • 2. Change in body weight at each time point of weeks 6, 12, 18, and 24 after administration of clinical trial drug compared to Visit 2 (randomization) • 3. Change in fasting lipid concentration (total cholesterol, LDL-C, HDL-C, and triglycerides) at each time point of weeks 6, 12, 18, and 24 after administration of clinical trial drug compared to Visit 2 (randomization) • 4. Changes in systolic or diastolic blood pressure at each time point of weeks 6, 12, 18, and 24 after administration of clinical trial drug compared to Visit 2 (randomization) • 5. Changes in β-cell function and insulin resistance measured by HOMA-β and HOMA-IR at each time point of weeks 6, 12, 18, and 24 after administration of clinical trial drug compared to Visit 2 (randomization) • 6. Changes in renal function-related indicators (UACR, UGCR) measured by UACR at each time point of weeks 6, 12, 18, and 24 after administration of clinical trial drug compared to Visit 2 (randomization) • 7. Changes in obesity-related indicators (adiponectin, leptin) at each time point of weeks 6, 12, 18, and 24 after administration of clinical trial drug compared to Visit 2 (randomization)

[1] = week 12, per-protocol set, enavogliflozin 0.3 mg, dapagliflozin 10 mg
[2] = week 18, listed as enavogliflozin
[3] = week 18, modified per-protocol set 1, enavogliflozin 0.3 mg, dapagliflozin 10 mg
[4] = week 18, per-protocol set, enavogliflozin 0.3 mg vs dapagliflozin 10 mg
[5] = week 18, per-protocol set, enavogliflozin 0.3 mg, dapagliflozin 10 mg

Structure (SMILES): OC[C@H]1O[C@@H](c2cc(Cc3ccc(C4CC4)cc3)c(Cl)c3c2CCO3)[C@H](O)[C@@H](O)[C@@H]1O [Enavogliflozin, (2S,3R,4R,5S,6R)-2-(7-chloro-6 (4-cyclopropylbenzyl)-2,3-dihydrobenzofuran-4-yl)-6-(hydroxymethyl)tetrahydro-2H-pyran-3,4,5-triol]
- FPG, Median [1]: 115.50 mg/dL
- HbA1c, Mean (SD) [1]: 6.97%
- HbA1c, Median [1]: 6.83%
- Subjects achieving HbA1c target of <6.5%, (%) [1]: (15.96) %
- Subjects achieving therapeutic glycemic response, (%) [1]: (88.30) %
- body weight, Mean (SD) [1]: 67.44(11.05) kg
- body weight, Median [1]: 65.70 kg
- fasting c-peptide, Mean (SD) [1]: 0.65(0.28) ng/mL
- fasting c-peptide, Median [1]: 0.61 ng/mL
- FPG change from baseline, LS mean (SE) (week 18): −33.44(1.60) mg/dL
- HOMA-IR change from baseline, LS mean (SE) (week 18): −1.79(0.11)
- HOMA-β change from baseline, LS mean (SE) (week 18): 10.97(3.06)
- HbA1c change from baseline, LS mean (SE) (week 18): −0.74(0.06) % p
- LDL-C change from baseline, LS mean (SE) (week 18): 1.42(1.86) mg/dL
- Subjects achieving HbA1c target of <7% (week 18): (62.64) %
- Subjects achieving HbA1c<6.5% (week 18): 9.89%
- Subjects achieving therapeutic response (HbA1c change >0.5% or HbA1c<7%) (week 18): 80.22%
- UACR change from baseline, LS mean (SE) (week 18): −23.05(5.06) g/kg
- diastolic blood pressure change from baseline, LS mean (SE) (week 18): −4.80(0.78) mmHg
- fasting c-peptide change from baseline, LS mean (SE) (week 18): −0.07(0.18) ng/ml
- leptin change from baseline, LS mean (SE) (week 18): −2.49(0.52) ng/mL
- systolic blood pressure change from baseline, LS mean (SE) (week 18): -6.69 mmHg
- FPG change from baseline, LS mean difference (week 18, vs dapagliflozin): -2.31 mg/dL
- HDL-C change from baseline, LS mean difference (week 18, vs dapagliflozin): -0.62 mg/dL
- HOMA-IR change from baseline, LS mean difference (week 18, vs dapagliflozin): −0.32
- HOMA-β change from baseline, LS mean difference (week 18, vs dapagliflozin): −2.53
- HbA1c change from baseline, LS mean difference (week 18, vs dapagliflozin): −0.05 % p
- LDL-C change from baseline, LS mean difference (week 18, vs dapagliflozin): -1.15 mg/dL
- Odds ratio for achieving HbA1c<6.5% (week 18, vs dapagliflozin): 0.31
- Odds ratio for achieving HbA1c<7% (week 18, vs dapagliflozin): 1.29
- Odds ratio for achieving therapeutic response (week 18, vs dapagliflozin): 1.58
- UACR change from baseline, LS mean difference (week 18, vs dapagliflozin): −10.10
- UGCR change from baseline, LS mean difference (week 18, vs dapagliflozin): 18.25 mg/mg
- body weight change from baseline, LS mean difference (week 18, vs dapagliflozin): 0.02 kg
- diastolic blood pressure change from baseline, LS mean difference (week 18, vs dapagliflozin): −0.70 mmHg
- fasting c-peptide change from baseline, LS mean difference (week 18, vs dapagliflozin): -0.02 ng/mL
- leptin change from baseline, LS mean difference (week 18, vs dapagliflozin): -1.26 ng/mL
- systolic blood pressure change from baseline, LS mean difference (week 18, vs dapagliflozin): −0.72 mmHg
- total cholesterol change from baseline, LS mean difference (week 18, vs dapagliflozin): -1.77 mg/dL
- triglyceride change from baseline, LS mean difference (week 18, vs dapagliflozin): -6.87 mg/dL
- Subjects achieving HbA1c target of <7% [2]: 62.64%
- UGCR change from baseline, LS mean (SE) [2]: 60.97(2.13) mg/mg and 42.72(2.15) mg/mg
- Change from baseline in total cholesterol, ANCOVA LS mean difference (week 18, modified per-protocol set 1, enavogliflozin 0.3 mg vs dapagliflozin 10 mg): -1.77 mg/dL
- Change from baseline in Total cholesterol, ANCOVA LS mean (SE) [3]: 7.80(2.16) mg/dL
- Change from baseline in Total cholesterol, Mean (SD) [3]: 6.23(16.54) mg/dL
- Change from baseline in total cholesterol, Median [3]: 6.00 mg/dL
- fasting Total cholesterol, Mean (SD) [3]: 156.99(32.54) mg/dL
- fasting Total cholesterol, Median [3]: 149.00 mg/dL
- Change from baseline in FPG, ANCOVA LS mean difference [4]: -2.31 mg/dL
- Change from baseline in HbA1c, ANCOVA LS mean difference [4]: −0.05 % p
- Change from baseline in body weight, ANCOVA LS mean difference [4]: 0.02 kg
- Change from baseline in fasting c-peptide, ANCOVA LS mean difference [4]: -0.02 ng/mL
- Odds ratio for achieving HbA1c target of <6.5%, logistic regression model [4]: 0.31
- Odds ratio for achieving therapeutic glycemic response, logistic regression model [4]: 1.58
- Change from baseline in FPG, ANCOVA LS mean (SE) [5]: -33.44 mg/dL
- Change from baseline in FPG, Mean (SD) [5]: -31.78 mg/dL
- Change from baseline in FPG, Median [5]: -31.00 mg/dL
- Change from baseline in HbA1c, ANCOVA LS mean (SE) [5]: −0.74 % p
- Change from baseline in HbA1c, Mean (SD) [5]: −0.71 % p
- Change from baseline in HbA1c, Median [5]: −0.56 % p
- Change from baseline in body weight, ANCOVA LS mean (SE) [5]: −3.14(0.26) kg
- Change from baseline in body weight, Mean (SD) [5]: −3.17(2.68) kg
- Change from baseline in body weight, Median [5]: -3.20 kg
- Change from baseline in fasting c-peptide, ANCOVA LS mean (SE) [5]: −0.08(0.02) ng/mL
- Change from baseline in fasting c-peptide, Mean (SD) [5]: −0.07(0.18) ng/mL
- Change from baseline in fasting c-peptide, Median [5]: -0.07 ng/mL
- FPG, Mean (SD) [5]: 112.95 mg/dL
- FPG, Median [5]: 113.00 mg/dL
- HbA1c, Mean (SD) [5]: 7.02%
- HbA1c, Median [5]: 6.89%
